For 13 compounds, IC50 results are on record in patent US20260226048A1, “MULTI-CYCLIC IRAK AND FLT3 INHIBITING COMPOUNDS AND USES THEREOF” (CHILDREN'S HOSPITAL MEDICAL CENTER, priority 2023, published 2026).

In one experiment the target is T1, IRAK1 (Homo sapiens, UniProt P51617).
T1 construct: purchased Reaction Biology (RBC HotSpot)
In words: RBC HotSpot Kinase Assay, IRAK1. It is filed as biochemical. Conditions: isolated kinase enzyme, 33P-ATP, P81 filter-binding. From the text:
(§1) This assay uses the isolated kinase enzyme. […] Unlike kinase binding assays that measure competition for ATP, the HotSpot Kinase Assay is a functional assay that measures catalytic activity; as such it measures relative functional potency regardless of the mechanism of enzyme inhibition. This assay uses the form of the various enzymes that are easiest to express, which may not necessarily be the form of the enzyme that exist in the cell. (Sometimes the carboxy terminus has been truncated to aid in expression, or, if it is a receptor kinase, the enzyme itself is isolated from the other parts of the receptor that are involved in regulating kinase activity.)
(§2) The reagent used was as follows: Base Reaction buffer; 20 mM Hepes (pH 7.5), 10 mM MgCl2, 1 mM EGTA, 0.01% Brij35, 0.02 mg/ml BSA, 0.1 mM Na3VO4, 2 mM DTT, 1% DMSO. Required cofactors were added individually to each kinase reaction.

For another experiment, the target named is T2, IRAK4 (Homo sapiens, UniProt Q9NWZ3).
T2 sequence (Q9NWZ3 1-460): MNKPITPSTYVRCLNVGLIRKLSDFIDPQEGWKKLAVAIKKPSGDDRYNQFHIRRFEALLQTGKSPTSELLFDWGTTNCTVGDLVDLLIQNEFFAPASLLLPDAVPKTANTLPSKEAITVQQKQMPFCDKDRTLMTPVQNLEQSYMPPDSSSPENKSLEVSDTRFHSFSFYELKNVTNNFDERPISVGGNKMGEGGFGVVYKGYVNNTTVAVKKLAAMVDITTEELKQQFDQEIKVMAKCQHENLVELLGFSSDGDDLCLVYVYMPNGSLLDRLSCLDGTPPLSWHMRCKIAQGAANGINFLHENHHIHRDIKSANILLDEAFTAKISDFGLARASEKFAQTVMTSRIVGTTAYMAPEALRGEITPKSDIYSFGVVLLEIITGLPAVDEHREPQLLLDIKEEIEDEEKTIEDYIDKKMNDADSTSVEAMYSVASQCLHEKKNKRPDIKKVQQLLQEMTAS
The experiment in a line: RBC HotSpot Kinase Assay, IRAK4. It is filed as biochemical. On the set-up: purchased Reaction Biology (RBC HotSpot). The note with it: isolated kinase enzyme, 33P-ATP, P81 filter-binding.
Excerpt: as §1, with “enzyme. This assay is very useful for determining competition of the inhibitor for ATP and/or substrates and for measuring the kinetics of enzyme inhibition.” for “enzyme.”
as §2
The reaction procedure was as follows: • 1) Substrates were prepared in freshly prepared Reaction Buffer. • 2) Any required cofactors were delivered to the substrate solution above. • 3) Kinase was delivered into the substrate solution and gently mixed. • 4) Compounds were delivered in 1000A DM into the kinase reaction mixture by Acoustic technology (Echo550; nanoliter range), followed by incubation for 20 min at room temp. • 5) 33P-ATP was delivered into the reaction mixture to initiate the reaction. • 6) The mixture was incubated for 2 hours at room temperature. • 7) Kinase activity was detected by P81 filter-binding method.

A further experiment deals with MOLM14 D835Y cells. The experiment in a line: MOLM14 D835Y cell viability assay (Cell Titer Glo). It is filed as cell-based. The note with it: Homo sapiens, MOLM-14, 48 h, cell viability, Cell Titer Glo, 48 hours; read-out: MOLM14 D835Y IC50. The procedure:
Both cell lines have activated FLT3 receptors, each of which carry additional resistance mutations in the kinase domain (D835Y and F691L, respectively).
For viability/cytotoxicity assessments, cells were seeded into 1536-well white polystyrene tissue culture-treated Greiner plates using a Multidrop Combi dispenser (ThermoFisher), in final volume 5 μL of growth media per well, at a density of 1000 cells per well. […] Plates were incubated for 48 hours at standard incubator conditions covered by a stainless steel gasketed lid to prevent evaporation. 48 hours post compound addition, 3 μL of Cell Titer Glo (Promega) were added to each well and plates were incubated at room temperature for 15 minutes with the stainless-steel lid in place. Luminescence readings were taken using a Viewlux imager (PerkinElmer) with a 2 second exposure time per plate.
(ATP-based viability assays read luminescence as a measure of living cells.)

The target in another experiment is T3, FLT3 (Homo sapiens, UniProt P36888).
T3 sequence (P36888 27-993): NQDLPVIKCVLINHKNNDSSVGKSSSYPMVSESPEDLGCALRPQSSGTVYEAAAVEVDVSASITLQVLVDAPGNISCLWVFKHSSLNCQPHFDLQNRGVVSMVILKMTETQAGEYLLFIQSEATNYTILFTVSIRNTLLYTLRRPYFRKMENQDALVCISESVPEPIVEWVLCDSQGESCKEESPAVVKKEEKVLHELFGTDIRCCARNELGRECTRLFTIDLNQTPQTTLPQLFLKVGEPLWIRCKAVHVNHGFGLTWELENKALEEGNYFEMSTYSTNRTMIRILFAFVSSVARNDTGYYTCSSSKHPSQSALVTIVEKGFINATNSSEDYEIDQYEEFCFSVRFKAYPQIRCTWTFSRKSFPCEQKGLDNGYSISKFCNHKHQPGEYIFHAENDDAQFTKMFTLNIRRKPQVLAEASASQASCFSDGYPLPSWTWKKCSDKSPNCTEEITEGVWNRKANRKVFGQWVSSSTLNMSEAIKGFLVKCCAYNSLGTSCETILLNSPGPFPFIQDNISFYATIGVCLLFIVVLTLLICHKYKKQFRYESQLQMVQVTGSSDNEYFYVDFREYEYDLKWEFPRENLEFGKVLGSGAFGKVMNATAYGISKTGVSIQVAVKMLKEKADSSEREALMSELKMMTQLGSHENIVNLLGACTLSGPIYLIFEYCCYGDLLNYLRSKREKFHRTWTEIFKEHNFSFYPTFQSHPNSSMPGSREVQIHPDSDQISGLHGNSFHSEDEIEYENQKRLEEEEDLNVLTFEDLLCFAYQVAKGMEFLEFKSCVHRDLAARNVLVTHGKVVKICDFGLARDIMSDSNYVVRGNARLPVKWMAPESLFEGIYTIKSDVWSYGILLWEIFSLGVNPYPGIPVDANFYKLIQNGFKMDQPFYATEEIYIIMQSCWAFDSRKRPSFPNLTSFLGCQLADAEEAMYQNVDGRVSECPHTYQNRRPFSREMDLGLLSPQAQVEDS
In words: RBC HotSpot Kinase Assay, FLT3. In kind it is biochemical. More on the design: purchased Reaction Biology (RBC HotSpot). The note with it: isolated kinase enzyme, 33P-ATP, P81 filter-binding.
Excerpt: as §1, §2

T1 sequence (P51617 whole entry): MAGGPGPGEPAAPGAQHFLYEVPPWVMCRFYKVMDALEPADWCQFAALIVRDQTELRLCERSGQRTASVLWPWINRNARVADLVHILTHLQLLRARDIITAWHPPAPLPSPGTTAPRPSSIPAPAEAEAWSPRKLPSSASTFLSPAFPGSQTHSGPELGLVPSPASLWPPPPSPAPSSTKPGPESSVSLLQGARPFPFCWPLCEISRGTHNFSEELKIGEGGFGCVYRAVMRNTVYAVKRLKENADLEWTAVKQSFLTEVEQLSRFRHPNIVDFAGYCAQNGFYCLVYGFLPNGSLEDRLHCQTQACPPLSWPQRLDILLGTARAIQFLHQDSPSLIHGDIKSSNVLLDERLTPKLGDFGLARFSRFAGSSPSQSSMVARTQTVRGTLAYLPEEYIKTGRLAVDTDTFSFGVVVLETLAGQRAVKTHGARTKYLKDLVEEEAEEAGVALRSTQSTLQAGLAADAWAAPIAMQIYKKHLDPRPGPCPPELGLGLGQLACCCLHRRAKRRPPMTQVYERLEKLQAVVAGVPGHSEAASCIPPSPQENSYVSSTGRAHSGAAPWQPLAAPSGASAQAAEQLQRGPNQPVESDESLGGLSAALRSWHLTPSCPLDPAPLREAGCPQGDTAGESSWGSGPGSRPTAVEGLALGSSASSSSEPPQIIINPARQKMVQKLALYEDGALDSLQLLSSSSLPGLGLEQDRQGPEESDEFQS

In the case of `FC(F)COc1cc2ncc(-c3ccnc(N[C@H]4CNC[C@@H]4F)n3)n2nc1C1CC1` [Compound 5a, 4-(6-cyclopropyl-7-(2,2-difluoroethoxy)imidazo[1,2-b]pyridazin-3-yl)-N-((3S,4S)-4-fluoropyrrolidin-3-yl)pyrimidin-2-amine], the IC50 is 29 nM on IRAK1, 0.9 nM on IRAK4, 29 nM in the experiment on MOLM14 D835Y cells and less than 0.5 nM at FLT3.
Take `FC(F)COc1cc2ncc(-c3ccnc(N[C@@H]4CCCNC4)n3)n2nc1C1CC1` [Compound 6a, (R)-4-(6-cyclopropyl-7-(2,2-difluoroethoxy)imidazo[1,2-b]pyridazin-3-yl)-N-(piperidin-3-yl)pyrimidin-2-amine]: the IC50 was 133 nM at IRAK1, 3 nM at IRAK4, 9 nM in the experiment on MOLM14 D835Y cells and less than 0.5 nM at FLT3.
For the compound `FC(F)COc1cc2ncc(-c3cncc(N[C@H]4CNC[C@@H]4F)n3)n2nc1C1CC1` [Compound 8a, 6-(6-cyclopropyl-7-(2,2-difluoroethoxy)imidazo[1,2-b]pyridazin-3-yl)-N-((3S,4S)-4-fluoropyrrolidin-3-yl)pyrazin-2-amine], the half-inhibitory concentration (IC50) on IRAK1 is 34 nM; at IRAK4 it was 2 nM; in the experiment on MOLM14 D835Y cells, 91 nM; at FLT3 it was less than 0.5 nM.
The matching figures for `FC(F)COc1cc2ncc(-c3cncc(N[C@@H]4CCCNC4)n3)n2nc1C1CC1` [Compound 9a, (R)-6-(6-cyclopropyl-7-(2,2-difluoroethoxy)imidazo[1,2-b]pyridazin-3-yl)-N-(piperidin-3-yl)pyrazin-2-amine]: 199 nM, 11 nM, 41 nM and less than 0.5 nM.
The matching figures for `F[C@H]1CNC[C@@H]1Nc1nccc(-c2cnc3cc(OC4CC4)c(C4CC4)nn23)n1` [Compound 10a, 4-(7-cyclopropoxy-6-cyclopropylimidazo[1,2-b]pyridazin-3-yl)-N-((3S,4S)-4-fluoropyrrolidin-3-yl)pyrimidin-2-amine]: 26 nM, 3 nM, 91 nM and less than 0.5 nM.
The matching figures for `COc1cc2ncc(-c3ccnc(N[C@H]4CNC[C@@H]4F)n3)n2nc1N1CC(F)(F)C1` [Compound 16a, 4-(6-(3,3-difluoroazetidin-1-yl)-7-methoxyimidazo[1,2-b]pyridazin-3-yl)-N-((3S,4S)-4-fluoropyrrolidin-3-yl)pyrimidin-2-amine]: 245 nM, 8 nM, 182 nM and less than 0.5 nM.
In the case of `COc1cc2ncc(-c3ccnc(N[C@@H]4CCCNC4)n3)n2nc1N1CC(F)(F)C1` [Compound 17a, (R)-4-(6-(3,3-difluoroazetidin-1-yl)-7-methoxyimidazo[1,2-b]pyridazin-3-yl)-N-(piperidin-3-yl)pyrimidin-2-amine], the IC50 at IRAK1 worked out at 1420 nM; on IRAK4 it was 215 nM; in the experiment with MOLM14 D835Y cells it was 182 nM; on FLT3, 4 nM.
The matching figures for `COc1cc2ncc(-c3ccnc(N[C@H]4CNCC[C@@H]4F)n3)n2nc1N1CC(F)(F)C1` [Compound 18a, 4-(6-(3,3-difluoroazetidin-1-yl)-7-methoxyimidazo[1,2-b]pyridazin-3-yl)-N-((3S,4S)-4-fluoropiperidin-3-yl)pyrimidin-2-amine]: 226 nM, 15 nM, 51 nM and less than 0.5 nM.
The matching figures for `COc1cc2ncc(-c3ccnc(N[C@H]4CNC[C@@H]4F)n3)n2nc1C1CC(F)(F)C1` [Compound 20a, 4-(6-(3,3-difluorocyclobutyl)-7-methoxyimidazo[1,2-b]pyridazin-3-yl)-N-((3S,4S)-4-fluoropyrrolidin-3-yl)pyrimidin-2-amine]: 170 nM, 12 nM, 182 nM and 0.7 nM.
The matching figures for `COc1cc2ncc(-c3ccnc(N[C@@H]4CCCNC4)n3)n2nc1C1CC(F)(F)C1` [Compound 21a, (R)-4-(6-(3,3-difluorocyclobutyl)-7-methoxyimidazo[1,2-b]pyridazin-3-yl)-N-(piperidin-3-yl)pyrimidin-2-amine]: 236 nM, 81 nM, 102 nM and less than 0.5 nM.
Turning to `COc1cc2ncc(-c3ccnc(N[C@H]4CNCC[C@@H]4F)n3)n2nc1C(C)(C)O` [Compound 40a, 2-(3-(2-(((3S,4S)-4-fluoropiperidin-3-yl)amino)pyrimidin-4-yl)-7-methoxyimidazo[1,2-b]pyridazin-6-yl)propan-2-ol], the IC50 came to 1130 nM on IRAK1, 76 nM on IRAK4, 115 nM in the experiment on MOLM14 D835Y cells and 3 nM at FLT3.
For `COc1cc2ncc(-c3ccnc(N[C@H]4CNC[C@@H]4F)n3)n2nc1C(C)(C)O` [Compound 41a, 2-(3-(2-(((3S,4S)-4-fluoropyrrolidin-3-yl)amino)pyrimidin-4-yl)-7-methoxyimidazo[1,2-b]pyridazin-6-yl)propan-2-ol], the half-inhibitory concentration (IC50) at IRAK1 came to 1590 nM; at IRAK4, 36 nM; in the experiment on MOLM14 D835Y cells it was 289 nM; at FLT3, 1 nM.
The matching figures for `COc1cc2ncc(-c3ccnc(N[C@@H]4CCCNC4)n3)n2nc1C(C)(C)O` [Compound 42a, (R)-2-(7-methoxy-3-(2-(piperidin-3-ylamino)pyrimidin-4-yl)imidazo[1,2-b]pyridazin-6-yl)propan-2-ol]: 3250 nM, 496 nM, 363 nM and 10 nM.

Broadly, the IC50 is the point on the concentration scale where inhibition reaches its midpoint.
